These results are taken from patent publication US20100021420A1, “COMBINATIONS OF PYRAZOLE DERIVATIVES FOR THE INHIBITION OF CDKS AND GSK'S” (ASTEX THERAPEUTICS LIMITED, priority 2006, published 2010).

Data set [1] can be described thus: Thermogravimetric analysis. In kind it is physicochemical. The method, then: Approximately 5 mg of sample (accurately weighed) was placed into a platinum TGA pan and loaded into a TGA 7 gravimetric analyser. The sample under study was then heated at a rate of 10° C./min (from ambient to 300° C.) and the resulting change in weight monitored. A dry nitrogen purge gas at a flow rate of 20 ml/min was used to produce an inert atmosphere and prevent oxidation of the sample during heating. Prior to analysis the instrument was weight calibrated using a 100 mg reference standard and temperature calibrated using an Alumel reference standard (using the Curie point transition temperature).

The nature of data set [2]: Vapour sorption/desorption analysis. In kind it is physicochemical. As to the method:
Approximately 20 mg of sample was placed into a wire-mesh vapour sorption balance pan and loaded into an ‘IgaSorp’ vapour sorption balance (Hiden Analytical Instruments) held at 25+/−0.1° C. The sample was then dried by maintaining a 0% humidity environment (using mass flow control apparatus) until no further weight change was recorded. Subsequently, the sample was then subjected to a ramping profile from 0-90% relative humidity (% RH) at 10% RH increments, maintaining the sample at each step until equilibration had been attained (99.5% step completion).
Upon reaching equilibration, the % RH within the apparatus was ramped to the next step and the equilibration procedure repeated. After completion of the sorption cycle, the sample was then dried using the same procedure. The weight change during the sorption/desorption cycles was then monitored, allowing for the hygroscopic nature of the sample to be determined.

A further data set concerns CLL. The following applies: initial therapy, symptomatic CLL patients, cited from earlier work.
Data set [3] relates to human colon carcinoma cell line HCT 116. The experiment in a line: Anti-proliferative activity, HCT-116 cell line. In kind it is cell-based. Conditions: HCT 116 (ECACC No. 91091005). The source says: See Example 15 of WO 2006/077426 at pages 100-101 (which is incorporated herein by reference).
Another data set deals with OVCAR-3 tumour cells. The following applies: in which PKB is amplified, concentrations of 50 and 100 microM; cited from earlier work.
In a further data set the test system is PKC. Conditions: cited from earlier work.
The subject of a further data set is HCT116 cell line. Put plainly: IC50 shift assay (combination), HCT116 cells. In kind it is cell-based.
Data set [4] concerns Human colon carcinoma cell line HT29. The experiment in a line: IC50 shift assay (combination), HT29 cells. It is filed as cell-based. Conditions: concurrent 72 hours, camptothecin 24 hours then Compound I 48 hours, or Compound I prior to camptothecin. As to the method:
Human colon carcinoma cell line HT29 (ECACC No. 91072201) cells were seeded onto 96-well tissue culture plates at a concentration of 5×10^3 cells/well. Cells were allowed to recover overnight prior to addition of compound(s) or vehicle control (0.2% DMSO) as follows;
Compounds were added according to one of the following schedules; • a) Concurrent for 72 hours. • b) Compound I for 24 hours followed by camptothecin for 48 hours. • c) Camptothecin for 24 hours followed by Compound I for 48 hours.
Following a total of 72 hours compound incubation, Alamar Blue™ was added to a final concentration of 10% (v/v) and incubated at 37° C. for 6 hours. Fluorescent product was quantified by reading at d535/25× (excitation) and d590/20 m (emission) on a Fusion Reader (Perkin Elmer). The IC50 for camptothecin in the presence of varying doses of Compound I was determined.

For the next data set, the system named is A2780 cells. The experiment in a line: IC50 shift assay (combination), A2780 cells. It is filed as cell-based.
In a further data set the test system is SkBR3 cell line. The experiment in a line: IC50 shift assay (combination), SkBR3 cells. It is filed as cell-based.
The conditions of data set [5]: mice; doses 10 times more than were needed for antitumour activity; cited from earlier work.
Data set [6] concerns Acute Promyelocytic Leukemia (APL). Conditions: cited from earlier work.
Data set [7] relates to P-glycoprotein-overexpressing subline of leukemic cell line CCRF-CEM. The following applies: cited from earlier work.
The conditions of data set [8]: antitumour agent; cited from earlier work.

Molecules are shown by their SMILES.

As to `CS(=O)(=O)N1CCC(NC(=O)c2n[nH]cc2NC(=O)c2c(Cl)cccc2Cl)CC1` [Set B Example 1, 4-(2,6-dichloro-benzoylamino)-1H-pyrazole-3-carboxylic acid (1-methanesulphonyl-piperidin-4-yl)-amide], in data set [1] (onset prior to the main melt transition), the “significant event (thermally induced partial degradation) in TGA plot” value is “about 288 °C”. Further, the “mass loss (TGA)” value in data set [1] (up to 150° C., crystals from Example 5 Step 8) is “approximately 0.2%”. In addition, the “weight loss during initial drying” value in data set [2] (0% RH, 25 °C) is “approximately 0.01%”. Also, in data set [2] (storage in elevated humidity conditions), the “hygroscopicity / hydrate formation” value is recorded as “physically stable with regard to hygroscopicity”. Besides, the total weight increase in [2] (upon equilibration at 90% RH, 25 °C) worked out at 0.24%.

As to `Nc1nc(F)nc2c1ncn2[C@@H]1O[C@H](CO)[C@@H](O)[C@@H]1O` [fludarabine, 9-β-D-arabinofuranosyl-2-fluoro-adenine], the “rate of complete responses” value in the data set on CLL (v 3% with alkylator-based therapies) is recorded as 27%. Also, the “duration of progression-free survival” value in the data set on CLL (v 17 months with alkylator-based therapies) is on record as 33 months.

In data set [3], `O=C(NC1CCNCC1)c1n[nH]cc1NC(=O)c1c(Cl)cccc1Cl` [Example 1] gave an IC50 of less than 20 µM.

Consider `O=S(=O)(NCCNCC=C(c1ccccc1)c1ccccc1)c1cccc2cnccc12` [NL-71-101], for which the apoptosis entry in the data set with OVCAR-3 tumour cells is “induced apoptosis”. The IC50 in the data set with PKC is 104 µM.

Turning to `O=C(NC1CCNCC1)c1n[nH]cc1NC(=O)c1c(Cl)cccc1Cl` [Compound I, 4-(2,6-dichloro-benzoylamino)-1H-pyrazole-3-carboxylic acid piperidin-4-ylamide], the “effect of combination with Iressa (synergy) confirmed” value in the data set with HCT116 cell line is reported as “confirmed”. Also, the “effect of combination with camptothecin in IC50 shift assay” value in [4] is reported as “additive”. In the data set with A2780 cells (Paclitaxel 24 h followed by Compound I 48 h), the “effect of combination with Paclitaxel in IC50 shift assay” value is given as “synergy”. For the same compound, in the data set with A2780 cells (added concurrently for 72 h), the “effect of combination with 5-FU in IC50 shift assay” value is recorded as “mildly synergistic”, the “effect of combination with Iressa in IC50 shift assay” value was “synergistic” and the “effect of combination with Paclitaxel in IC50 shift assay” value is given as “Additive”. For the same compound, the “effect of combination with Cisplatin in IC50 shift assay” value with A2780 cells (concurrently for 72 h or Cisplatin 24 h followed by compound I 48 h) is listed as “additive”. Moreover, the “effect of combination with Etoposide in IC50 shift assay” value in the data set with A2780 cells (concurrently for 72 h or Etoposide 24 h followed by compound I 48 h) is listed as “additive”. Further, the “effect of combination with Gemcitibine in IC50 shift assay” value with A2780 cells (concurrently for 72 h or Gemcitibine 24 h followed by Compound I 48 h) is “additive”. For the same compound, the “effect of combination with Vinblastine in IC50 shift assay” value in the data set on A2780 cells (concurrently for 72 h or Vinblastine 24 h followed by compound I 48 h) is listed as “additive”. In addition, in the data set on SkBR3 cell line, the “effect of combination with Iressa (synergy) confirmed” value was “confirmed”.

Regarding `CCOC(=O)c1ccc2[nH]c3c(OC)c4[nH]c5ccc(C(=O)OCC)cc5c4cc3c2c1` [SR-13668], the adverse effects result in [5] is “no adverse effects”.

Take `CC1=C(/C=C/C(C)=C/C=C/C(C)=C/C(=O)O)C(C)(C)CCC1` [Tretinoin]: the “remissions in APL patients” value in data set [6] is 64-100%.

Regarding `C/C1=C/C[C@@H](/C(C)=C/c2csc(C)n2)OC(=O)C[C@H](O)C(C)(C)C(=O)[C@H](C)[C@@H](O)[C@@H](C)CCC1` [desoxyepothilone B], the IC50 in data set [7] was 0.017 µM.

As to `CCN[C@H]1CO[C@@H](O[C@H]2[C@H](O[C@H]3C#C/C=C\C#C[C@]4(O)CC(=O)C(NC(=O)OC)=C3/C4=C\CSSSC)O[C@H](C)[C@@H](NO[C@H]3C[C@H](O)[C@H](SC(=O)c4c(C)c(I)c(O[C@@H]5O[C@@H](C)[C@H](O)[C@@H](OC)[C@H]5O)c(OC)c4OC)[C@@H](C)O3)[C@@H]2O)C[C@@H]1OC` [Calicheamicin], in data set [8], the “potency relative to adriamycin” value is recorded as “over 1,000 times”.

As a reminder, the IC50 is the concentration at which inhibition is half-maximal.
